Values of other authors as cited in paper PMC8674134, “Safety and efficacy of avapritinib in advanced systemic mastocytosis: the phase 1 EXPLORER trial” (Nature Medicine, 2021).

Assays:
KIT D816V = tested on: KIT D816V; parameters: method as in PMID 16779792, PMID 15166033, PMID 19193436; details: cited from earlier work
mast cell leukemia (MCL) = tested on: mast cell leukemia (MCL); parameters: method as in PMID 27355533; details: patients with MCL; 95% CI, 6–54%; cited from earlier work
[1] = tested on: advanced systemic mastocytosis (AdvSM); parameters: method as in PMID 32392175; details: post hoc exploratory analysis of pivotal phase 2 study; cited from earlier work

Compound | Activity against KIT D816V (KIT D816V) | 24-month OS (mast cell leukemia (MCL)) [%] | CR rate by IWG-MRT-ECNM criteria [1] [%] | Responses by IWG-MRT-ECNM criteria, patients [1] [%]
Cc1ccc(NC(=O)c2ccc(CN3CCN(C)CC3)cc2)cc1Nc1nccc(-c2cccnc2)n1 [Imatinib] | lacks activity | – | – | –
CO[C@@H]1[C@H](N(C)C(=O)c2ccccc2)C[C@H]2O[C@]1(C)n1c3ccccc3c3c4c(c5c6ccccc6n2c5c31)C(=O)NC4 [midostaurin] | – | 26 | 2 | 28
